Experiments:
[1] = Selectivity index, ratio of IC50 for HMEC1 to IC50 for chloroquine-sensitive Plasmodium falciparum D10
Plasmodium falciparum [2] = assay: Antiplasmodial activity against chloroquine-resistant Plasmodium falciparum W2 assessed as inhibition of parasite growth after 72 hrs by parasite lactate dehydrogenase assay; type: functional, organism-based; settings: W2, 72 h
Plasmodium falciparum [3] = assay: Antiplasmodial activity against chloroquine-sensitive Plasmodium falciparum D10 assessed as inhibition of parasite growth after 72 hrs by parasite lactate dehydrogenase assay; type: functional, organism-based; settings: D10, 72 h
[4] = Selectivity index, ratio of IC50 for HMEC1 to IC50 for chloroquine-resistant Plasmodium falciparum W2
[5] = Cytotoxicity against HMEC1 cells after 72 hrs by MTT assay; type: cell-based; settings: Homo sapiens, HMEC-1, 72 h
Plasmodium falciparum [6] = assay: Resistance index, ratio of IC50 for chloroquine-resistant Plasmodium falciparum W2 to IC50 for chloroquine-sensitive Plasmodium falciparum D10; type: functional
[7] = Selectivity index, ratio of IC50 for HMEC1 to IC50 for Leishmania infantum MHOM/TN/80/IPT1
[8] = Selectivity index, ratio of IC50 for HMEC1 to IC50 for Leishmania tropica MHOM/IT/2012/ISS3130
Leishmania tropica = assay: Antileishmanial activity against Leishmania tropica MHOM/IT/2012/ISS3130 promastigotes assessed as inhibition of parasite growth after 72 hrs by MTT assay; type: functional, organism-based; settings: MHOM/IT/2012/ISS3130, 72 h
Leishmania infantum = assay: Antileishmanial activity against Leishmania infantum MHOM/TN/80/IPT1 promastigotes assessed as inhibition of parasite growth after 72 hrs by MTT assay; type: functional, organism-based; settings: MHOM/TN/80/IPT1, 72 h
Leishmania braziliensis = assay: Antileishmanial activity against Leishmania braziliensis MHOM/IT/2006/ISS2848 promastigotes assessed as inhibition of parasite growth after 72 hrs by MTT assay; type: functional, organism-based; settings: MHOM/IT/2006/ISS2848, 72 h
[9] = Selectivity index, ratio of IC50 for HMEC1 to IC50 for Leishmania braziliensis MHOM/IT/2006/ISS2848

Structure (SMILES)	Ratio IC50 [1]	IC50 (Plasmodium falciparum [2]) [nM]	IC50 (Plasmodium falciparum [3]) [nM]	Ratio IC50 [4]	IC50 [5] [nM]	Ratio IC50 (Plasmodium falciparum [6])	Ratio IC50 [7]	Ratio IC50 [8]	IC50 (Leishmania tropica) [nM]	IC50 (Leishmania infantum) [nM]	IC50 (Leishmania braziliensis) [nM]	Ratio IC50 [9]
Cl.Fc1ccc(Nc2cc3nc4ccccc4n(-c4ccc(F)cc4)c-3c/c2=N/CCCCCCC23CCCCN2CCCC3)cc1	6.7	340	280	5.5	1870	1.2	4.3	5.5	330	430	–	–
c1ccc(Nc2cc3nc4ccccc4n(-c4ccccc4)c-3c/c2=N/C[C@H]2CCCN3CCCC[C@H]23)cc1	–	240	140	–	–	1.7	–	–	–	–	–	–
CN(C)CCC/N=c1/cc2n(-c3ccc(Cl)cc3)c3ccccc3nc-2cc1Nc1cccnc1	11.7	280	400	16.6	4660	0.7	11.4	6.1	770	410	–	–
Clc1ccc(Nc2cc3nc4ccccc4n(-c4ccc(Cl)cc4)c-3c/c2=N/C[C@@H]2CCCN3CCCC[C@H]23)cc1	–	960	450	–	–	2.1	–	–	–	–	–	–
Cl.c1ccc(Nc2cc3nc4ccccc4n(-c4ccccc4)c-3c/c2=N/CCCCCCC23CCCCN2CCCC3)cc1	7.3	210	170	5.9	1240	1.2	5.4	10.3	120	230	140	8.9
Cl.Fc1ccc(Nc2cc3nc4ccccc4n(-c4ccc(F)cc4)c-3c/c2=N/CCCCC23CCCCN2CCCC3)cc1	8.2	390	240	5	1960	1.6	4.1	2.3	840	480	–	–
c1ccc(Nc2cc3nc4ccccc4n(-c4ccccc4)c-3c/c2=N/CCC[C@@H]2CCCN3CCCC[C@H]23)cc1	36.6	63	120	71.4	4500	0.5	2.8	1.7	2700	1590	–	–
Cl.c1ccc(Nc2cc3nc4ccccc4n(-c4ccccc4)c-3c/c2=N/CCCCC23CCCCN2CCCC3)cc1	5.9	270	210	4.5	1230	1.3	3.3	5.6	220	370	170	7.2
CC(C)/N=c1\cc2n(-c3ccc(Cl)cc3)c3ccccc3nc-2cc1Nc1ccc(Cl)cc1 [CLOFAZIMINE]	3.9	7020	4820	2.6	18600	1.5	4.2	6.3	2960	4480	–	–
CCN(CC)CCCC(C)Nc1ccnc2cc(Cl)ccc12 (stereo not drawn) [CHLOROQUINE]	–	–	–	–	> 38000	–	–	–	–	–	–	–
c1ccc(Nc2cc3nc4ccccc4n(-c4ccccc4)c-3c/c2=N/C[C@@H]2CCCN3CCCC[C@H]23)cc1	–	810	370	–	–	2.2	–	–	–	–	–	–
Cl.c1ccc(-n2c3c/c(=N/CCCCC45CCCCN4CCCC5)c(Nc4cccnc4)cc-3nc3ccccc32)cc1	13.9	210	280	18.5	3890	0.8	0.6	1.9	2010	6020	–	–
Cl.Clc1ccc(Nc2cc3nc4ccccc4n(-c4ccc(Cl)cc4)c-3c/c2=N/CC23CCCN2CCC3)cc1	5.8	750	620	4.8	3570	1.2	–	0.5	7440	–	–	–
Cl.c1ccc(Nc2cc3nc4ccccc4n(-c4ccccc4)c-3c/c2=N/CCC23CCCN2CCC3)cc1	5.5	290	340	6.5	1900	0.9	2.1	1.7	1100	910	–	–
C[C@@H]1[C@H](O)[C@@H](C)/C=C/C=C/C=C/C=C/C=C/C=C/C=C/[C@H](O[C@@H]2O[C@H](C)[C@@H](O)[C@H](N)[C@@H]2O)C[C@@H]2O[C@](O)(C[C@@H](O)C[C@@H](O)[C@H](O)CC[C@@H](O)C[C@@H](O)CC(=O)O[C@H]1C)C[C@H](O)[C@H]2C(=O)O [AMPHOTERICIN B]	–	–	–	–	25700	–	321	286	90	80	90	286
c1ccc(Nc2cc3nc4ccccc4n(-c4ccccc4)c-3c/c2=N/CC[C@@H]2CCCN3CCCC[C@H]23)cc1	–	270	180	–	–	1.5	–	–	–	–	–	–
Cc1ccc(Nc2cc3nc4ccccc4n(-c4ccc(C)cc4)c-3c/c2=N/C[C@@H]2CCCN3CCCC[C@H]23)cc1.Cl	7.5	400	210	3.9	1570	1.9	3.4	3.3	470	460	–	–
Cl.c1ccc(Nc2cc3nc4ccccc4n(-c4ccccc4)c-3c/c2=N/CC23CCCN2CCC3)cc1	4.1	440	640	6	2650	0.7	–	0.3	9850	–	–	–
COc1ccc(Nc2cc3nc4ccccc4n(-c4ccccc4)c-3c/c2=N/CCCCC23CCCCN2CCCC3)cn1.Cl	7.8	350	810	18.1	6320	0.4	1.4	2.7	2320	4440	–	–
Cl.Clc1ccc(-n2c3c/c(=N/CCCCC45CCCCN4CCCC5)c(Nc4cccnc4)cc-3nc3ccccc32)cc1	10.6	180	220	12.9	2330	0.8	6.9	6.9	340	340	–	–
Cl.Clc1ccc(Nc2cc3nc4ccccc4n(-c4ccc(Cl)cc4)c-3c/c2=N/CCC23CCCN2CCC3)cc1	5.2	450	190	2.2	980	2.4	3.3	1.8	540	300	–	–
Cl.Fc1ccc(Nc2cc3nc4ccccc4n(-c4ccc(F)c(Cl)c4)c-3c/c2=N/CCCCCCC23CCCCN2CCCC3)cc1Cl	4.4	570	310	2.4	1350	1.9	3.9	5.5	240	350	–	–
Cl.c1ccc(Nc2cc3nc4ccccc4n(-c4ccccc4)c-3c/c2=N/CCN2CCCC2)cc1	7.7	110	180	12.6	1390	0.6	–	0.1	12300	–	–	–
C[N+]12CCCCC1(CCCC/N=c1/cc3n(-c4ccccc4)c4ccccc4nc-3cc1Nc1ccccc1)CCCC2.[I-] (stereo not drawn)	58.2	270	190	41	11100	1.4	4.1	10.1	1090	2670	–	–

Source: ChEMBL document CHEMBL3351819, “Clofazimine analogs with antileishmanial and antiplasmodial activity” (Bioorg Med Chem, 2015)
